Target: T1, KIT N822K (Homo sapiens, UniProt P10721, N822K)
T1 construct: purchased Thermo Fisher Scientific (Life Technologies) SelectScreen
Test: SelectScreen LanthaScreen
Format: binding
Conditions: read-out: % displacement
Protocol: The in vitro kinase selectivity of NU5455 was determined using the SelectScreen Broad Assay Panel (Thermo Fisher Scientific) involving activity and binding assays (Supplemental Table 1). […] Class IA PI3Ks were measured using the p85α subunit.
Kinase [ATP] % Assay Kinase [ATP] % Assay Kinase [ATP] % Assay Kinase [ATP] % Assay […]
FLT3 Km app 9.1 Z HIPK1 (Myak) Km app 2.8 Z KIT N822K n/a -0.2 L EPHB4 Km app -5.3 Z […]
SGK (SGK1) Km app 8.5 Z MAP4K2 (GCK) Km app 2.7 Z TLK2 n/a -0.3 L STK38 (NDR) n/a -5.9 L
MERTK (cMER) Km app 8.3 Z CDK2/cyclin A Km app 2.7 Z TGFBR1 (ALK5) n/a -0.4 L MATK (HYL) Km app -6.3 Z
FYN Km app 8.3 Z EPHA1 Km app 2.7 Z CLK3 Km app -0.5 Z ABL1 E255K Km app -6.6 Z
TEC n/a 8.1 L CDK2/cyclin E1 n/a 2.7 L MAP3K14 (NIK) n/a -0.5 L STK17A (DRAK1) n/a -6.6 L
KIT V654A n/a 8.1 L TESK2 n/a 2.7 L AKT3 (PKB gamma) Km app -0.5 Z JAK2 JH1 JH2 Km app -6.7 Z
ROS1 Km app 8.0 Z SPHK1 Km app 2.7 A MAP3K9 (MLK1) Km app -0.5 Z PRKACB (PRKAC beta) n/a -6.8 L
FGFR3 K650E Km app 7.9 Z AMPK A2/B1/G1 Km app 2.6 Z IKBKB (IKK beta) Km app -0.6 Z PDGFRA (PDGFR alpha) Km app -6.8 Z
RAF1 (cRAF) Y340D Y341D 100 7.9 Z DYRK3 Km app 2.6 Z CAMK2A (CaMKII alpha) Km app -0.6 Z NEK9 Km app -7.2 Z
PI4KA (PI4K alpha) 10 7.8 A CSNK1D (CK1 delta) Km app 2.6 Z PRKCB1 (PKC beta I) Km app -0.7 Z PDK1 Km app -7.3 Z
HIPK2 Km app 7.8 Z ACVR2A n/a 2.5 L TTK n/a -0.7 L RPS6KB1 (p70S6K) Km app -7.8 Z […]

T1 sequence (P10721 26-976 N822K): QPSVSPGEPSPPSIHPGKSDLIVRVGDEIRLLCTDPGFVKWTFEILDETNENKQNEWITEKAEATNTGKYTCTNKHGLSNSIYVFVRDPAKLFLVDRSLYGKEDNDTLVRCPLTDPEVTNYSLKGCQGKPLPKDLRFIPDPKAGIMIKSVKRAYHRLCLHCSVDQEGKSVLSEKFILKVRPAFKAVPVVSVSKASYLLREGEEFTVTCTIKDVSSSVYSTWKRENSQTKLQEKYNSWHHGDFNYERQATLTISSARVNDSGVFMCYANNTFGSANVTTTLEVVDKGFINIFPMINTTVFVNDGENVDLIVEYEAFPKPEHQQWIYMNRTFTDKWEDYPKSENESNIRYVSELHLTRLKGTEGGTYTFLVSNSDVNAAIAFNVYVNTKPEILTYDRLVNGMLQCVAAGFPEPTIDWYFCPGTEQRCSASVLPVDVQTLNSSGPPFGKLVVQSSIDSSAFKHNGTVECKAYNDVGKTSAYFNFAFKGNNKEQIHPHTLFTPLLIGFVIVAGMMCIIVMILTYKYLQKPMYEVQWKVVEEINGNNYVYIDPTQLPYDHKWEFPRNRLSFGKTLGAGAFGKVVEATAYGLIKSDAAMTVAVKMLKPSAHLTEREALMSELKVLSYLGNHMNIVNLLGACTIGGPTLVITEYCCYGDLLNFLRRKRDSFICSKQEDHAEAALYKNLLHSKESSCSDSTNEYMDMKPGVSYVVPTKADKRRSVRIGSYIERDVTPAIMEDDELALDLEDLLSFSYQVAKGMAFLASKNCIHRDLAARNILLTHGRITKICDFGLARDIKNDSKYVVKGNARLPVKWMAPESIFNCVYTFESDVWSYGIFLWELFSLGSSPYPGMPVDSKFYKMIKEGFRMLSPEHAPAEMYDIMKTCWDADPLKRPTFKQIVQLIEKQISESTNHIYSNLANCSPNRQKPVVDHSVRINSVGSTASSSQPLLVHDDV

SMILES: CN(C(=O)CN1CCOCC1)c1ccc2sc3c(-c4cccc5c(=O)cc(N6CC7CCC(C6)O7)oc45)cccc3c2c1 [NU5455]
- inhibition at 1 µM: -0.2%
